In the NIST ThermoML archive (doi:10.1021/je0342419):

Columns and labels:
[1] = 300 kPa, Fluid (supercritical or subcritical phases)
[2] = xn = mol fraction of the nth substance listed; conditions: 300 kPa, Fluid (supercritical or subcritical phases)

O=C=O [carbon dioxide]
[1]
Conditions | viscosity [mPa·s]
500 K | 0.0236
800 K | 0.0356
1100 K | 0.0452

O=C=O [carbon dioxide] + [HH]
[2], x2 = 0
Conditions | viscosity [mPa·s]
500 K | 0.0236
800 K | 0.0356
1100 K | 0.0452

[HH] [hydrogen]
[1]
Conditions | viscosity [mPa·s]
500 K | 0.0129
800 K | 0.0179
1100 K | 0.0226

[HH] [hydrogen] + O=C=O
viscosity [mPa·s], [2]
Conditions | x1 = 0.15 | x1 = 0.3 | x1 = 0.5 | x1 = 0.7 | x1 = 0.85 | x1 = 1
500 K | 0.0238 | 0.0241 | 0.0236 | 0.0215 | 0.0192 | 0.0129
800 K | 0.0351 | 0.0346 | 0.0336 | 0.0303 | 0.0269 | 0.0179
1100 K | 0.0438 | 0.0431 | 0.0422 | 0.0403 | 0.0346 | 0.0226
